Our source for the IC50 and EC50 values is US20020028807A1, “Non-nucleoside reverse transcriptase inhibitors” (priority 2000, published 2002).

In one assay the target is T1, HIV-1 RT wild-type (WT) (Human immunodeficiency virus type 1 group M subtype B, UniProt P03366).
T1 construct: an HIV RT clone pKRT2 containing only the RT p66 gene regulated by the lac operon/trc promoter; made in house; host or cells: E. coli JM109, vector pKK233-2
Briefly: Reverse transcriptase (RT) assay, wild-type enzyme. In kind it is biochemical. An excerpt:
(§1) Among the enzymes for which Human Immunodeficiency Virus (HIV-1) encodes is a reverse transcriptase (1), so-named because it transcribes a DNA copy from an RNA template. This activity can be quantitatively measured in a cell-free enzyme assay and is based upon the observation that reverse transcriptase is able to use a synthetic template poly r(C) primed with a biotinylated oligo d(G) to transcribe a radio-labelled DNA strand utilising 3H-dGTP as a substrate. The assay described below utilises the wild-type enzyme (which is the predominant form of the enzyme observed in patients infected with HIV-1) and can also be used with mutant RT enzymes (for example, Y181C, prepared by site-directed mutagenesis in which the tyrosine residue at codon 181 has been replaced by a cysteine residue) in analogous assay conditions. This assay allows compounds to be evaluated for their effectiveness at inhibiting the mutant enzymes.
(§2) Some HIV-1 IIIB clone BH10 RT mutants were provided by Dr. C.-K. Shih (Boehringer Ingelheim Pharmaceutials Inc., U.S.A.) in the vector pKK233-2 (Pharmacia). Briefly an HIV RT clone pKRT2 containing only the RT p66 gene regulated by the lac operon/trc promoter was obtained from Dr. W. Summers (Yale University) (2). A variety of specific amino acid substitutions were introduced into the wild-type RT gene by site-directed mutagenesis. RT clones were subcloned into the pKK233-2 bacterial expression vector. Clones provided included wild-type, Val106Ala, Tyr181Cys, Tyr188Cys, Tyr188Leu, Gly190Ala and Pro236Leu. Others were made in-house by site-directed mutagenesis of the pKK233-2 RT clones including Lys103Asn, Lys103Asn/Tyr181Cys, Lys103Asn/Leu100Ile, Lys103Asn/Pro225His, and Lys103Asn/Val108Ile.
(§3) Purification of recombinant reverse transcriptase was performed using a combination of methods previously described (3). A single colony from a fresh plate of transformed JM109 cells was used to initiate growth of a pre-culture grown o/n at 37° C. Two liters of growth medium were inoculated with this pre-culture. At OD600˜1.5 (5-6 h at 37° C.), RT gene expression was induced with IPTG (1 mM final), and the fermentation was continued for a few more hours at 37° C. After centrifugation, supernatants were discarded while cell pellets were pooled and stored at −80° C. until purification. Cells were thawed at 4° C. overnight and suspended in lysis buffer (MES 50 mM pH 6, EDTA 1 mM, 10% v/v glyerol, 0.02% w/v OBG, 0.02% w/v sodium azide). Lysozyme was added and the mixture was incubated on ice for 40 minutes. After homogenization using a bounce in presence of lysozyme and sonication, the cells were centrifuged for 30 minutes. Supernatant (S1) was saved and stored at 4° C. The centrifuged pellet was resuspended in extraction buffer (MES 50 mM pH 6, KPO4 50 mM pH 6, KCl 100 mM, 10% v/v glycerol, 0.02% w/v OBG, 0.02% w/v sodium axide) and stirred for 30 minutes at 4° C. This second mixture was centrifuged again and the supernatant (S2) was saved. The above procedure was repeated 2 more times saving supernatants S3 and S4 and one last extraction was performed overnight (S5). Polymin P (0.005% final) was added to the combined supernatants to remove nucleic acids. This solution was stirred for 75 minutes at 4° C. and centrifuged for 1 h. The supernatant (SS1) was precipitated on ice with 20% w/v ammonium sulfate and stirred for 1 h at 4° C. The mixture was then centrifuged and the resulting supernatant (SS2) was precipitated with additional 40% w/v ammonium sulfate (60% total), stirred for 1 h and centrifuged again. The final pellet (P1) was stored overnight at 4° C. before undergoing purification the following day. All steps of the purification were performed at 4° C. unless otherwise stated.
(§4) Pellet (P1) was resuspended into MES 50 mM pH 6, KPO4 10 mM pH 6, KCl 100 mM, 10% v/v glycerol, 0.02% w/v OBG, 0.02% w/v sodium azide. The suspension was dialysis against the same buffer overnight using 12-14 kD MWCO dialysis tubing. […]

A further assay concerns the target T2, HIV-1 RT K103N (Human immunodeficiency virus type 1 group M subtype B, UniProt P03366, K702N).
T2 construct: an HIV RT clone pKRT2 containing only the RT p66 gene regulated by the lac operon/trc promoter; made in house; host or cells: E. coli JM109, vector pKK233-2
Briefly: Reverse transcriptase (RT) assay, K103N mutant. In kind it is biochemical.
Excerpt: as §1, §2, §3, §4

Another assay addresses T3, HIV-1 RT Y181C (Human immunodeficiency virus type 1 group M subtype B, UniProt P03366, Y780C).
T3 construct: an HIV RT clone pKRT2 containing only the RT p66 gene regulated by the lac operon/trc promoter; made in house; host or cells: E. coli JM109, vector pKK233-2
The assay is described as follows: Reverse transcriptase (RT) assay, Y181C mutant. The class given is biochemical.
Excerpt: as §1, §2, §3, §4

The next assay addresses T4, HIV-1 RT V106A (Human immunodeficiency virus type 1 group M subtype B, UniProt P03366, V705A).
T4 construct: an HIV RT clone pKRT2 containing only the RT p66 gene regulated by the lac operon/trc promoter; made in house; host or cells: E. coli JM109, vector pKK233-2
Briefly: Reverse transcriptase (RT) assay, V106A mutant. In kind it is biochemical.
Excerpt: as §1, §2, §3, §4

For the next assay, the target named is T5, HIV-1 RT Y188L (Human immunodeficiency virus type 1 group M subtype B, UniProt P03366, Y787L).
T5 construct: an HIV RT clone pKRT2 containing only the RT p66 gene regulated by the lac operon/trc promoter; made in house; host or cells: E. coli JM109, vector pKK233-2
Briefly: Reverse transcriptase (RT) assay, Y188L mutant. The class given is biochemical.
Excerpt: as §1, §2, §3, §4

A further assay deals with T6, HIV-1 RT K103N/Y181C (Human immunodeficiency virus type 1 group M subtype B, UniProt P03366, K702N/Y780C).
T6 construct: an HIV RT clone pKRT2 containing only the RT p66 gene regulated by the lac operon/trc promoter; made in house; host or cells: E. coli JM109, vector pKK233-2
Briefly: Reverse transcriptase (RT) assay, K103N/Y181C mutant. In kind it is biochemical.
Excerpt: as §1, §2, §3, §4

The target in another assay is T7, HIV-1 RT K103N/P225H (Human immunodeficiency virus type 1 group M subtype B, UniProt P03366, K702N/P824H).
T7 construct: an HIV RT clone pKRT2 containing only the RT p66 gene regulated by the lac operon/trc promoter; made in house; host or cells: E. coli JM109, vector pKK233-2
The assay is described as follows: Reverse transcriptase (RT) assay, K103N/P225H mutant. The class given is biochemical.
Excerpt: as §1, §2, §3, §4

For a further assay, the target named is T8, HIV-1 RT K103N/V108I (Human immunodeficiency virus type 1 group M subtype B, UniProt P03366, K702N/V707I).
T8 construct: an HIV RT clone pKRT2 containing only the RT p66 gene regulated by the lac operon/trc promoter; made in house; host or cells: E. coli JM109, vector pKK233-2
Briefly: Reverse transcriptase (RT) assay, K103N/V108I mutant. In kind it is biochemical.
Excerpt: as §1, §2, §3, §4

For the next assay, the target named is T9, HIV-1 RT K103N/L100I (Human immunodeficiency virus type 1 group M subtype B, UniProt P03366, K702N/L699I).
T9 construct: an HIV RT clone pKRT2 containing only the RT p66 gene regulated by the lac operon/trc promoter; made in house; host or cells: E. coli JM109, vector pKK233-2
Briefly: Reverse transcriptase (RT) assay, K103N/L100I mutant. The class given is biochemical.
Excerpt: as §1, §2, §3, §4

Assay [1] deals with HIV coding for wild-type reverse transcriptase (WT RT). Briefly: ELISA (p24) assay of HIV replication in C8166 cell culture, wild-type RT virus. In kind it is cell-based, HIV-1. Conditions: Human immunodeficiency virus 1, C8166, 72 h, read-out: EC50 WT RT. The procedure:
(§5) Compounds of the invention were tested for their ability to inhibit HIV replication in cell culture in a 96-well plate assay. Complete RPMI 1640, consisting of RPMI 1640+10% fetal bovine serum, 10 μg/ml gentamycin and 10 μM β-mercaptoethanol was used for dilution of the compound as well as cell growth medium. The T lymphocyte cell line C8166 was infected at a multiplicity of infection of 0.001 with viruses coding for wild-type and mutant reverse transcriptase. Cells were then incubated for three days in the presence of serial dilutions of the compounds of the invention. The supernatant was pooled from eight replica wells and the concentration of extracellular p24 was determined using a commercially available HIV-1 p24 antigen assay kit (Beckman-Coulter®). The level of inhibition (% inhibition) was calculated with the following equation: [formula]

The subject of assay [2] is HIV coding for mutant reverse transcriptase K103N/Y181C. Briefly: ELISA (p24) assay of HIV replication in C8166 cell culture, K103N/Y181C virus. The class given is cell-based, HIV-1. The conditions noted are these: Human immunodeficiency virus 1, C8166, 72 h, read-out: EC50 K103N/Y181C. The procedure: as §5
A further assay deals with T10, HIV-1 RT G190A (Human immunodeficiency virus type 1 group M subtype B, UniProt P03366, G789A).
T10 construct: an HIV RT clone pKRT2 containing only the RT p66 gene regulated by the lac operon/trc promoter; made in house; host or cells: E. coli JM109, vector pKK233-2
Briefly: Reverse transcriptase (RT) assay, G190A mutant. In kind it is biochemical.
Excerpt: as §1, §2, §3, §4

In a further assay the target is T11, HIV-1 RT Y188C (Human immunodeficiency virus type 1 group M subtype B, UniProt P03366, Y787C).
T11 construct: an HIV RT clone pKRT2 containing only the RT p66 gene regulated by the lac operon/trc promoter; made in house; host or cells: E. coli JM109, vector pKK233-2
The assay is described as follows: Reverse transcriptase (RT) assay, Y188C mutant. The class given is biochemical.
Excerpt: as §1, §2, §3, §4

Assay [3] concerns HIV coding for mutant reverse transcriptase K103N. The assay is described as follows: ELISA (p24) assay of HIV replication in C8166 cell culture, K103N virus. Conditions: Human immunodeficiency virus 1, C8166, 72 h, read-out: EC50 K103N. In kind it is cell-based, HIV-1. The procedure: as §5
Assay [4] deals with HIV coding for mutant reverse transcriptase Y181C. The assay is described as follows: ELISA (p24) assay of HIV replication in C8166 cell culture, Y181C virus. In kind it is cell-based, HIV-1. The conditions noted are these: Human immunodeficiency virus 1, C8166, 72 h, read-out: EC50 Y181C. The procedure:
as §5

For assay [5], the system named is HIV coding for mutant reverse transcriptase V106A. The assay is described as follows: ELISA (p24) assay of HIV replication in C8166 cell culture, V106A virus. In kind it is cell-based, HIV-1. The conditions noted are these: Human immunodeficiency virus 1, C8166, 72 h, read-out: EC50 V106A. The procedure:
as §5

Assay [6] relates to HIV coding for mutant reverse transcriptase Y188L. The assay is described as follows: ELISA (p24) assay of HIV replication in C8166 cell culture, Y188L virus. Conditions: Human immunodeficiency virus 1, C8166, 72 h, read-out: EC50 Y188L. In kind it is cell-based, HIV-1. The procedure:
as §5

Regarding `CCN1c2ncc(CCOc3cccc4c3ccc[n+]4[O-])cc2C(=O)N(C)c2ccc(F)nc21` [compound 18, 5,11-Dihydro-11-ethyl-2-fluoro-5-methyl-8-{2-{(1-oxido-5-quinolinyl)-oxy}ethyl}-6H-dipyrido[3,2-b:2′,3′-e][1,4]diazepin-6-one], the IC50 on HIV-1 RT wild-type (WT) is 11 nM; at HIV-1 RT K103N it was 37 nM; on HIV-1 RT Y181C, 41 nM; on HIV-1 RT V106A, 737 nM; on HIV-1 RT Y188L, 1170 nM; on HIV-1 RT K103N/Y181C, 146 nM. Moreover, the 50% inhibitory concentration (IC50) at HIV-1 RT K103N/P225H turned out to be 20 nM; on HIV-1 RT K103N/V108I, 96 nM; on HIV-1 RT K103N/L100I, 158 nM. Also, the figures for the EC50 in [1] and in assay [2] were 0.34 nM and 9.5 nM, respectively.
Take `CCN1c2ncc(CCOc3cc[n+]([O-])c4ccccc34)cc2C(=O)N(C)c2ccc(C)nc21` [compound 28, 2,5-Dimethyl-5,11-dihydro-11-ethyl-8-{2-{(1-oxido-4-quinolinyl)oxy}ethyl}-6H-dipyrido[3,2-b:2′,3′-e][1,4]diazepin-6-one]: the IC50 on HIV-1 RT wild-type (WT) worked out at 19 nM; at HIV-1 RT V106A, 605 nM; at HIV-1 RT Y188L it was 1190 nM; on HIV-1 RT G190A it was 25 nM; on HIV-1 RT K103N/Y181C, 141 nM; at HIV-1 RT K103N/P225H it was 25 nM. Moreover, the IC50 at HIV-1 RT Y188C was found to be 9 nM; at HIV-1 RT K103N/V108I it was 35 nM; at HIV-1 RT K103N/L100I it was 28 nM. Besides, the EC50 amounted to 1.3 nM in assay [1]; 2.3 nM in assay [3]; 2.6 nM in [4]; 42 nM in [5]; 70 nM in assay [6]; 7.5 nM in assay [2].
